Laboratory results from US20100119599A1 (ARCHER PHARMACEUTICALS, INC., priority 2006, published 2010).

Legend:
Aβ1-40 = assay: Measurement of Aβ1-40 in culture medium of 7W WT APP751 CHO cells by ELISA; format: cell-based, Chinese hamster; conditions: for activity at 5 µM: Cricetulus griseus, Table 1, 5 μM test compound, CHO cells stably transfected with human APP751, culture medium, ELISA, control DMSO, 0 = no detectable amount; for Aβ1-40 (% of control): CHO cells that overexpress APP751, zero = below the detection limit of the assay
Aβ1-42 = assay: Measurement of Aβ1-42 in culture medium of 7W WT APP751 CHO cells by ELISA; format: cell-based, Chinese hamster; conditions: for activity at 5 µM: Cricetulus griseus, Table 1, 5 μM test compound, CHO cells stably transfected with human APP751, culture medium, ELISA, control DMSO, 0 = no detectable amount, read-out: Aβ1-42 (% of control); for Aβ1-42 (% of control): CHO cells that overexpress APP751, zero = below the detection limit of the assay
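Note: 5 µM test compound but RI-coded compounds at 10 µM for 24 hours.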

COCCOC(=O)C1=C(C)NC2=C(C(=O)CCC2)C1c1cc(Br)c(O)c(OC)c1 (stereo not shown) [ST013357, 2-methoxyethyl 4-(3-bromo-4-hydroxy-5-methoxyphenyl)-2-methyl-5-oxo-1,4,6,7,8-pentahydroquinoline-3-carboxylate]
activity at 5 µM (Aβ1-40): 62.4% | activity at 5 µM (Aβ1-42): 95.2%

CCc1cccc(NC(=O)CSC2=C(C#N)C(c3cc(Br)cs3)C(C(=O)Nc3ccccc3)=C(C)N2)c1 (stereo not shown) [RI_80]
Aβ1-40 (% of control) (Aβ1-40): 64.37 % of control | Aβ1-42 (% of control) (Aβ1-42): 54.3 % of control

CCN(CC)c1ccc(C2C(C(=O)OCCOc3ccccc3)=C(C)NC3=C2C(=O)CC(C)(C)C3)cc1 (stereo not shown) [ST015075, 2-phenoxyethyl 4-[4-(diethylamino)phenyl]-2,7,7-trimethyl-5-oxo-1,4,6,7,8-pentahydroquinoline-3-carboxylate]
activity at 5 µM (Aβ1-40): 51.7% | activity at 5 µM (Aβ1-42): 42.2%

CC1=C(C(=O)OCC2CCCO2)C(c2cccc(Cl)c2)C2=C(CC(C)(C)CC2=O)N1 (stereo not shown) [ST017242, oxolan-2-ylmethyl 4-(3-chlorophenyl)-2,7,7-trimethyl-5-oxo-1,4,6,7,8-pentahydroquinoline-3-carboxylate]
activity at 5 µM (Aβ1-40): 49.6% | activity at 5 µM (Aβ1-42): 0%

COc1cc(/C=c2\sc3n(c2=O)C(N)=C(C#N)C(c2ccc(OC(C)C)c(OC)c2)C=3C#N)ccc1OC(C)C (stereo not shown) [ST025029, 5-amino-7-[3-methoxy-4-(methylethoxy)phenyl]-2-{[3-methoxy-4-(methylethoxy)phenyl]methylene}-3-oxo-4,7-dihydro-1,3-thiazolidino[3,2-a]pyridine-6,8-dicarbonitrile]
Aβ1-40 (% of control) (Aβ1-40): 65.7 % of control | Aβ1-42 (% of control) (Aβ1-42): 73.69 % of control

CC1=C(C(=O)OCCc2ccccc2)C(c2ccc(Cl)c(Cl)c2)C2=C(CCCC2=O)N1 (stereo not shown) [ST015098, 2-phenylethyl 4-(3,4-dichlorophenyl)-2-methyl-5-oxo-1,4,6,7,8-pentahydroquinoline-3-carboxylate]
activity at 5 µM (Aβ1-40): 40.9% | activity at 5 µM (Aβ1-42): 0%

CC1(C)CC(=O)C2=C(C1)N(c1ccc(Br)cc1)C(N)=C(C#N)C2c1ccc(C(C)(C)C)s1 (stereo not shown) [ST052026, 2-amino-4-[5-(tert-butyl)(2-thienyl)]-1-(4-bromophenyl)-7,7-dimethyl-5-oxo-1,4,6,7,8-pentahydroquinoline-3-carbonitrile]
activity at 5 µM (Aβ1-40): 13.5% | activity at 5 µM (Aβ1-42): 25.3%

CCOC(=O)C1=C(C)NC2=C(C(=O)CCC2)C1c1ccc(OCc2ccc(C)cc2)c(OC)c1 (stereo not shown) [ST028606, ethyl 4-{3-methoxy-4-[(4-methylphenyl)methoxy]phenyl}-2-methyl-5-oxo-1,4,6,7,8-pentahydroquinoline-3-carboxylate]
activity at 5 µM (Aβ1-40): 24.2% | activity at 5 µM (Aβ1-42): 52%

CC1=C(C(=O)Nc2ccccc2)C(c2ccsc2)C(C#N)=C(SCC(=O)Nc2ccc(Cl)cc2)N1 (stereo not shown) [RI_75]
Aβ1-40 (% of control) (Aβ1-40): 27.3 % of control | Aβ1-42 (% of control) (Aβ1-42): 38.6 % of control

CCCCOC(=O)C1=C(C)NC2=C(C(=O)CC(C)(C)C2)C1c1cccc2ccccc12 (stereo not shown) [ST013208, butyl 2,7,7-tnmethyl-4-naphthyl-5-oxo-1,4,6,7,8-pentahydroquinoline-3-carboxylate]
activity at 5 µM (Aβ1-40): 0% | activity at 5 µM (Aβ1-42): 20.2%

CC(C)COc1cccc(/C=c2\sc3n(c2=O)C(N)=C(C#N)C(c2cccc(OCC(C)C)c2)C=3C#N)c1 (stereo not shown) [ST025023, 5-amino-7-[3-(2-methylpropoxy)phenyl]-2-{[3-(2-methylpropoxy)phenyl]methylene}-3-oxo-4,7-dihydro-1,3-thiazolidino[3,2-a]pyridine-6,8-dicarbonitrile]
Aβ1-40 (% of control) (Aβ1-40): 68.13 % of control | Aβ1-42 (% of control) (Aβ1-42): 85.29 % of control

CCCCCOC(=O)C1=C(C)NC2=C(C(=O)CCC2)C1c1cc(Br)c(O)c(OC)c1 (stereo not shown) [ST013170, pentyl 4-(3-bromo-4-hydroxy-5-methoxyphenyl)-2-methyl-5-oxo-1,4,6,7,8-pentahydroquinoline-3-carboxylate]
activity at 5 µM (Aβ1-40): 62.8% | activity at 5 µM (Aβ1-42): 49.8%

CCc1ccc(NC(=O)CSC2=C(C#N)C(c3cccs3)C(C(=O)Nc3ccccc3)=C(C)N2)cc1 (stereo not shown) [RI_61]
Aβ1-40 (% of control) (Aβ1-40): 68.5 % of control | Aβ1-42 (% of control) (Aβ1-42): 51.4 % of control

COC(=O)C1=C(C)NC2=C(C(=O)CC(c3ccc(Cl)cc3)C2)C1c1ccc(OCc2ccccc2)cc1 (stereo not shown) [ST016953, methyl 7-(4-chlorophenyl)-2-methyl-5-oxo-4-[4-(phenylmethoxy)phenyl]-1,4,6,7,8-pentahydroquinoline-3-carboxylate]
activity at 5 µM (Aβ1-40): 43.9% | activity at 5 µM (Aβ1-42): 69.7%

CCOc1cc(C2C(C(=O)OCc3ccccc3)=C(C)NC3=C2C(=O)CCC3)ccc1O (stereo not shown) [ST013242, phenylmethyl 4-(3-ethoxy-4-hydroxyphenyl)-2-methyl-5-oxo-1,4,6,7,8-pentahydroquinoline-3-carboxylate]
activity at 5 µM (Aβ1-40): 81.2% | activity at 5 µM (Aβ1-42): 64.4%

CSC1=C(C#N)C(c2ccc(Cl)cc2)C(C(=O)OC(C)(C)C)=C(C)N1 (stereo not shown) [ST050983, tert-butyl 4-(4-chlorophenyl)-5-cyano-2-methyl-6-methylthio-1,4-dihydropyridine-3-carboxylate]
Aβ1-40 (% of control) (Aβ1-40): 51.3 % of control | Aβ1-42 (% of control) (Aβ1-42): 0 % of control

CCc1ccc(C2C(C(=O)OCc3ccc(OC)cc3)=C(C)NC3=C2C(=O)CCC3)cc1 (stereo not shown) [ST016983, (4-methoxyphenyl)methyl 4-(4-ethylphenyl)-2-methyl-5-oxo-1,4,6,7,8-pentahydroquinoline-3-carboxylate]
activity at 5 µM (Aβ1-40): 51.6% | activity at 5 µM (Aβ1-42): 72.6%

CCOC(=O)C1=C(C)NC2=C(C(=O)CC(C)(C)C2)C1c1cccc(OC)c1OC (stereo not shown) [ST013184, ethyl 4-(2,3-dimethoxyphenyl)-2,7,7-trimethyl-5-oxo-1,4,6,7,8-pentahydroquinoline-3-carboxylate]
activity at 5 µM (Aβ1-40): 73.7% | activity at 5 µM (Aβ1-42): 60.3%

CCc1cccc(NC(=O)CSC2=C(C#N)C(c3sccc3Br)C(C(=O)Nc3ccccc3)=C(C)N2)c1 (stereo not shown) [RI_82]
Aβ1-40 (% of control) (Aβ1-40): 67.5 % of control | Aβ1-42 (% of control) (Aβ1-42): 67.9 % of control

CCOC(=O)C1=CN(c2cc(C)ccc2C)C=C(C(=O)OCC)C1c1ccc(OC)c(OC)c1OC [ST052487, ethyl 1-(2,5-dimethylphenyl)-5-(ethoxycarbonyl)-4-(2,3,4-trimethoxyphenyl)-1,4-dihydropyridine-3-carboxylate]
Aβ1-40 (% of control) (Aβ1-40): 11.56 % of control | Aβ1-42 (% of control) (Aβ1-42): 15.1 % of control

COC(=O)C1=C(C)NC2=C(C(=O)CC(C)(C)C2)C1c1ccc(C(F)(F)F)cc1 (stereo not shown) [ST052359, methyl 2,7,7-trimethyl-5-oxo-4-[4-(trifluoromethyl)phenyl]-1,4,6,7,8-pentahydroquinoline-3-carboxylate]
activity at 5 µM (Aβ1-40): 31% | activity at 5 µM (Aβ1-42): 29.5%

CCOc1cccc(C2C(C(=O)OC)=CNC=C2C(=O)OC)c1 [ST052415, methyl 4-(3-ethoxyphenyl)-5-(methoxycarbonyl)-1,4-dihydropyridine-3-carboxylate]
Aβ1-40 (% of control) (Aβ1-40): 70.57 % of control | Aβ1-42 (% of control) (Aβ1-42): 72.15 % of control

CC1=C(C(=O)Nc2ccccc2)C(c2ccsc2)C(C#N)=C(SCC(=O)Nc2ccc(C)cc2)N1 (stereo not shown) [RI_49]
Aβ1-40 (% of control) (Aβ1-40): 40.9 % of control | Aβ1-42 (% of control) (Aβ1-42): 37.7 % of control

CC1=C(C(=O)OCc2ccccc2)C(c2cccc(Cl)c2Cl)C2=C(CC(C)(C)CC2=O)N1 (stereo not shown) [ST013230, phenylmethyl 4-(2,3-dichlorophenyl)-2,7,7-trimethyl-5-oxo-1,4,6,7,8-pentahydroquinoline-3-carboxylate]
activity at 5 µM (Aβ1-40): 0% | activity at 5 µM (Aβ1-42): 69.5%

CCOC(=O)C1=C(N)n2c(s/c(=C\c3ccccc3OC)c2=O)=C(S(=O)(=O)c2ccccc2)C1c1ccccc1OC (stereo not shown) [ST011325, ethyl 5-amino-7-(2-methoxyphenyl)-2-[(2-methoxyphenyl)methylene[-3-oxo-8-(phenylsulfonyl)-4,7-dihydro-1,3-thiazolidino[3,2-a]pyridine-6-carboxylate]
Aβ1-40 (% of control) (Aβ1-40): 62.35 % of control | Aβ1-42 (% of control) (Aβ1-42): 99 % of control

CC1=C(C(=O)OCCOc2ccccc2)C(c2ccccc2OC(C)C)C2=C(CCCC2=O)N1 (stereo not shown) [ST014919, 2-phenoxyethyl 2-methyl-4-[2-(methylethoxy)phenyl]-5-oxo-1,4,6,7,8-pentahydroquinoline-3-carboxylate]
activity at 5 µM (Aβ1-40): 63.4% | activity at 5 µM (Aβ1-42): 85.1%

CCc1ccc(C2C(C(=O)OC(C)C)=C(C)NC3=C2C(=O)CCC3)cc1 (stereo not shown) [ST013191, methylethyl 4-(4-ethylphenyl)-2-methyl-5-oxo-1,4,6,7,8-pentahydroquinoline-3-carboxylate]
activity at 5 µM (Aβ1-40): 33.4% | activity at 5 µM (Aβ1-42): 98%

COC(=O)C1=C(C)NC2=C(C(=O)CC(C)(C)C2)C1c1ccc(-c2ccccc2)cc1 (stereo not shown) [ST216875, methyl 2,7,7-trimethyl-5-oxo-4-(4-phenylphenyl)-1,4,6,7,8-pentahydroquinoline-3-carboxylate]
activity at 5 µM (Aβ1-40): 14.2% | activity at 5 µM (Aβ1-42): 33%

COC(=O)C1=CN(Cc2ccc3c(c2)OCO3)C=C(C(=O)OC)C1c1cccs1 [ST038112, methyl 1-(2H-benzo[3,4-d]1,3-dioxolen-5-ylmethyl)-5-(methoxycarbonyl)-4-(2-thienyl)-1,4-dihydropyridine-3-carboxylate]
Aβ1-40 (% of control) (Aβ1-40): 47.7 % of control | Aβ1-42 (% of control) (Aβ1-42): 99.52 % of control

COCCOC(=O)C1=C(C)NC2=C(C(=O)CC(C)(C)C2)C1c1cccnc1 (stereo not shown) [ST017252, 2-methoxyethyl 2,7,7-trimethyl-5-oxo-4-(3-pyridyl)-1,4,6,7,8-pentahydroquinoline-3-carboxylate]
activity at 5 µM (Aβ1-40): 89.6% | activity at 5 µM (Aβ1-42): 70.5%

CCc1cccc(NC(=O)CSC2=C(C#N)C(c3cc4ccccc4s3)C(C(=O)Nc3ccccc3)=C(C)N2)c1 (stereo not shown) [RI_87]
Aβ1-40 (% of control) (Aβ1-40): 77.1 % of control | Aβ1-42 (% of control) (Aβ1-42): 49 % of control

CCc1ccc(C2C(C(=O)OC3CCCCC3)=C(C)NC3=C2C(=O)CCC3)cc1 (stereo not shown) [ST013320, cyclohexyl 4-(4-ethylphenyl)-2-methyl-5-oxo-1,4,6,7,8-pentahydroquinoline-3-carboxylate]
activity at 5 µM (Aβ1-40): 60.2% | activity at 5 µM (Aβ1-42): 71.8%
